Experimental data published in US8133893B2, “Trazodone and trazodone hydrochloride in purified form” (Aziende Chimiche Riunite Angelini Francesco A.C.R.A.F. …, priority 2007, dated 2012).
Where “and” joins values, the source holds several entries; their conditions need not be identical. Equal entries are not always repeated.

What was measured:
[1] = tested on: Salmonella typhimurium strain TA1535; test: bacterial reverse mutation test (standard plate incorporation assay); format: cell-based
Procedure: The genotoxic activity of N-(3-chlorophenyl)-N′-(3-chloropropyl)-piperazine has been assessed on histidine-dependent auxotrophic mutants of Salmonella typhimurium strains TA1535, TA1537, TA 98 and TA100, and on tryptophan-dependent mutants of Escherichia coli strain WP2 uvrA (pKM101), exposed to a solution of N-(3-chlorophenyl)-N′-(3-chloropropyl)-piperazine in dimethylsulphoxide (DMSO) and using DMSO as negative control. Two independent mutation tests were performed, both in the presence and absence of a liver microsomal fraction (S9 mix) of rat treated with phenobarbital and 5,6-benzoflavone. Tests were standard plate incorporation assays and performed according to the current regulatory guidelines. A substantial increase in reversion to prototrophy was obtained on strain TA1535 in the presence of S9 mix. In the two assays the increase was concentration related and reached, following exposure to 1500 μg per plate of N-(3-chlorophenyl)-N′-(3-chloropropyl)-piperazine, 6.4 and 5.1 times the control value.

[2] = as reported in TOXNET, National Library of Medicine; cited from earlier work

## ClCCCN1CCN(c2cccc(Cl)c2)CC1 [N-(3-chlorophenyl)-N′-(3-chloropropyl)-piperazine]
[1]; bacterial system, following metabolic activation (S9 mix)
  genotoxic activity (conclusion): exhibited genotoxic activity
[1]; strain TA1535, in the presence of S9 mix (rat liver microsomal fraction), 1500 μg per plate, two independent assays, DMSO negative control
  increase in reversion to prototrophy: 6.4 times the control value and 5.1 times the control value

## 2,2-Dichloroethylamine
[2]
  genotoxicity: known genotoxic substances
